Experimental data from PubChem BioAssay (NCI).
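Interpolation was linear, between the two tested concentrations surrounding the appropriate level; five concentrations were tested over 48 hours in 96-well plates. TGI: total growth inhibition.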

Tests used:
Test in all cases: NCI-60 cell line screen, 48 h
CCRF-CEM leukemia = test system: CCRF-CEM leukemia
HCC-2998 colon = test system: HCC-2998 colon
HL-60(TB) leukemia = test system: HL-60(TB) leukemia
KM12 colon = test system: KM12 colon
MALME-3M melanoma = test system: MALME-3M melanoma
NCI-H226 lung = test system: NCI-H226 lung
NCI-H460 lung = test system: NCI-H460 lung
RPMI-8226 leukemia = test system: RPMI-8226 leukemia
RXF 393 renal = test system: RXF 393 renal
SK-MEL-28 melanoma = test system: SK-MEL-28 melanoma
SK-MEL-5 melanoma = test system: SK-MEL-5 melanoma
TK-10 renal = test system: TK-10 renal
U251 CNS = test system: U251 CNS
OVCAR-4 ovarian = test system: OVCAR-4 ovarian
SF-268 CNS = test system: SF-268 CNS
MDA-MB-435 = test system: MDA-MB-435

SMILES | TGI (CCRF-CEM leukemia) [µM] | TGI (HCC-2998 colon) [µM] | TGI (HL-60(TB) leukemia) [µM] | TGI (KM12 colon) [µM] | TGI (MALME-3M melanoma) [µM] | TGI (NCI-H226 lung) [µM] | TGI (NCI-H460 lung) [µM] | TGI (RPMI-8226 leukemia) [µM] | TGI (RXF 393 renal) [µM] | TGI (SK-MEL-28 melanoma) [µM] | TGI (SK-MEL-5 melanoma) [µM] | TGI (TK-10 renal) [µM] | TGI (U251 CNS) [µM] | TGI (OVCAR-4 ovarian) [µM] | TGI (SF-268 CNS) [µM] | TGI (MDA-MB-435) [µM]
[N-]=[N+]=NC(CBr)c1cn([C@H]2C[C@H](O)[C@@H](CO)O2)c(=O)[nH]c1=O (some centres not stated) | > 100 | > 100 | > 100 | > 100 | > 100 | > 100 | > 100 | > 100 | > 100 | > 100 | > 100 | > 100 | > 100 |  |  | 
COCCOCC(=O)N(CCn1ccc(NC(c2ccccc2)(c2ccccc2)c2ccccc2)nc1=O)CCn1cnc2nc(N)[nH]c(=O)c21 | > 100 | > 100 | > 100 | > 100 | > 100 | > 100 | > 100 | > 100 | > 100 | > 100 | > 100 | > 100 | > 100 | > 100 | > 100 | 
COC(=O)[C@@]12OC[C@]34C([C@@H](O)C1O)[C@@]1(C)CC(=O)C(OC(=O)/C=C(/c5ccccc5)C(F)(F)F)=C(C)C1C[C@H]3OC(=O)[C@H](O)[C@H]42 (some centres not stated) | > 50 | 22.3 | 2.97 | > 50 | 28.9 | 29.5 | 23 | 13.9 | 45.6 | 27 | 31.4 | > 50 | > 50 | > 50 | > 50 | 
COc1cc(O)c2c(=O)cc(C3(O)C=CC(=O)C=C3)oc2c1 |  | 1.12 | 2.75 | 0.447 |  | 1.73 | 2.06 |  | 17.7 | 0.578 | 0.234 | 0.376 | 0.0808 | 3.35 | 1.72 | 
Cn1c2c(c3ccccc31)CC(=S)N1CCCC(CC2O)C1 (configuration not stated) |  | > 100 |  | > 100 | > 100 | > 100 | > 100 | > 100 |  | > 100 | > 100 | > 100 | > 100 | > 100 | > 100 | > 100
O=c1[nH]n(Cc2ccccn2)c2ccc([N+](=O)[O-])cc12 | > 100 | > 100 | > 100 | > 100 | > 100 | > 100 | > 100 | > 100 | > 100 | > 100 | > 100 | > 100 | > 100 | > 100 | > 100 | 
CC(=O)Nc1ccc(C(=O)NN2C(=O)C(Cl)C2c2ccccc2O)cc1 (configuration not stated) | > 100 |  | > 100 |  | > 100 | > 100 | > 100 |  | 61 | > 100 | > 100 | > 100 | > 100 | > 100 | > 100 | 
CCCCCCCN1C(=O)C(O)(c2ccc(C3(O)C(=O)N(CCCCCCC)c4ccccc43)s2)c2ccccc21 (configuration not stated) | 27 | 3.44 | 3.42 | 3.36 |  |  | 3.49 | 4.69 |  | 3.98 | 3.26 | 5.67 | 3.17 | 3.77 | 3.97 | 3.87
CN(C)c1ccc(/C=N\N2C(=O)c3ccccc3C2=O)cc1 | > 100 | > 100 | > 100 | > 100 | > 100 | > 100 | > 100 | > 100 | > 100 | > 100 | > 100 | > 100 |  | > 100 | > 100 | 
Cc1c2c(n(CCN(C)C)c1C)NN=C(C#N)S2(=O)=O |  | > 100 |  | > 100 | > 100 | > 100 | > 100 | > 100 |  | > 100 |  | > 100 | > 100 | > 100 | > 100 | > 100
Cn1ncnc1CCc1ccccc1 | > 100 |  | > 100 | > 100 | > 100 | > 100 | > 100 | > 100 | > 100 | > 100 | > 100 | > 100 | > 100 | > 100 | > 100 | 
COc1ccc(CNc2nc3c(NC(C)=O)cc(C(F)(F)F)cc3nc2-c2ccccc2)cc1OC | > 100 | > 100 | > 100 | > 100 | > 100 |  | > 100 | > 100 |  | > 100 | > 100 | > 100 | > 100 | 95.7 | > 100 | 
Cc1nc(Nc2ccc([N+](=O)[O-])cc2)sc1C(/C=C/c1ccc(N(C)C)cc1)=N/NC(=O)c1ccccc1 | > 100 | > 100 | > 100 | > 100 | > 100 | > 100 | > 100 |  | > 100 | > 100 |  | > 100 | > 100 | > 100 | > 100 | 
COc1ccc2c(c1)CCC1=CC3(CCC12C)SCCS3 (configuration not stated) | > 10 | > 10 | 8.36 | > 10 | > 10 |  |  | > 10 |  | > 10 | > 10 | > 10 | > 10 | > 10 | > 10 | > 10
O=c1cc(-c2ccc(Cl)cc2)oc2cc(OCCCOc3ccc4c(=O)cc(-c5ccc(Cl)cc5)oc4c3)ccc12 | > 100 | > 100 | > 100 | > 100 | > 100 | > 100 | > 100 | > 100 | > 100 | > 100 | > 100 | > 100 | > 100 | > 100 | > 100 | 
C=CCN(C)CN(C)c1nc(N(C)C)nc(N(C)C)n1 | > 100 | > 100 | 48.7 | > 100 | > 100 |  | > 100 | > 100 |  | > 100 | > 100 | > 100 | > 100 | > 100 | > 100 | 

SMILES | TGI (CCRF-CEM leukemia) [µM] | TGI (HCC-2998 colon) [µM] | TGI (HL-60(TB) leukemia) [µM] | TGI (KM12 colon) [µM] | TGI (MALME-3M melanoma) [µM] | TGI (NCI-H226 lung) [µM] | TGI (NCI-H460 lung) [µM] | TGI (RPMI-8226 leukemia) [µM] | TGI (RXF 393 renal) [µM] | TGI (SK-MEL-28 melanoma) [µM] | TGI (SK-MEL-5 melanoma) [µM] | TGI (TK-10 renal) [µM] | TGI (U251 CNS) [µM] | TGI (OVCAR-4 ovarian) [µM] | TGI (SF-268 CNS) [µM] | TGI (MDA-MB-435) [µM]
Cc1ccc(S(=O)(=O)N2CCCC2C(=O)O[C@H]2CC[C@H]3CC=C[C@H]32)cc1 (some centres not stated) | > 100 | > 100 |  | > 100 | > 100 | > 100 | 91.4 | 77.7 |  | 96.7 | 43.6 |  | > 100 | > 100 | > 100 | > 100
Cc1ccc(O)c(C(=O)CCCC(=O)c2cc(C)ccc2O)c1 | > 100 | > 100 | > 100 | > 100 | > 100 | > 100 | > 100 | > 100 |  | > 100 | > 100 | > 100 | > 100 | > 100 | > 100 | 
O=C(O)Cn1c(=O)[nH]c(=O)c2c1ncn2Cc1ccccc1 | > 100 |  |  | > 100 | > 100 | > 100 | > 100 | > 100 |  | > 100 | > 100 | > 100 | > 100 |  | > 100 | 
C=CC[C@@H]1C(=O)[C@@]2(O[Si](C(C)C)(C(C)C)C(C)C)CC[C@@H]1C[C@H]2NC(=O)OCC(Cl)(Cl)Cl | > 100 | > 100 |  | > 100 |  | > 100 | > 100 |  |  | > 100 | > 100 | > 100 | > 100 | > 100 | > 100 | > 100
COc1cc2c(cc1OC)C(=O)C(C1=C(SC(=N)N)C(=O)c3cc(OC)c(OC)cc31)C2 (configuration not stated) | > 100 | > 100 |  | > 100 | > 100 | > 100 | > 100 | > 100 |  | > 100 | > 100 |  | > 100 | > 100 | > 100 | 
CC(C)C(/C=C/c1ccc(Br)cc1)=N\NC(N)=O | > 100 | 25.7 | > 100 | > 100 |  | > 100 | > 100 | > 100 | > 100 | > 100 | > 100 | > 100 | > 100 | > 100 | > 100 | 
O=C(Nc1ccccc1F)c1cc2ccc(O)cc2oc1=Nc1cccc(C(F)(F)F)c1 | 4.79 | > 100 | 4.84 | 26.8 | 34.9 |  | > 100 | > 100 |  | 40.7 | 4.91 |  | 19.3 | 12.9 | 13.2 | 22.7
COC(=O)C(Cc1nc2ccc(Cl)cc2[nH]c1=O)/C(=N/NC(N)=O)C(=O)Nc1ccc(Cl)cc1 (configuration not stated) | > 100 | > 100 | > 100 | > 100 | > 100 | > 100 | > 100 | > 100 | > 100 | > 100 | > 100 | > 100 | > 100 | > 100 | > 100 | 
CCOC(=O)c1cnc(-n2[nH]c3c(c2=O)CCCC3)[nH]c1=O | > 100 |  | > 100 | > 100 | > 100 | > 100 | > 100 | > 100 |  | > 100 | > 100 | > 100 | > 100 | > 100 | > 100 | > 100
O=C(NO)C(=O)Nc1ccc(Cl)cc1[N+](=O)[O-] | > 100 | > 100 | > 100 | > 100 | > 100 | > 100 | > 100 | > 100 | > 100 | > 100 | > 100 | > 100 | > 100 | > 100 | > 100 | 
CCOC(=O)c1ccc(-n2c(SCC)nc3sc(C)c(C)c3c2=O)cc1 | > 100 | > 100 | > 100 | > 100 | > 100 | > 100 | > 100 | > 100 | > 100 | > 100 | > 100 | > 100 | > 100 | > 100 | > 100 | 
COc1c(O)c2c(=O)cc(OC)c3c4c(OC)cc(=O)c5c(O)c(OC)c6c(c(c1C(C(C)=O)C6C(C)O)c23)c54 (configuration not stated) | 1.16 | 1.06 | 0.415 | 1.07 | 2.57 | 3.65 | 0.688 | 1.28 |  | 3.3 |  | 3.65 | 0.603 |  | 3.92 | 3.1
CC1(C)CC(=O)c2c(nc(SSc3nc4c(c(-c5ccccc5)c3C#N)C(=O)CC(C)(C)C4)c(C#N)c2-c2ccccc2)C1 | > 10 | > 10 | > 10 | > 10 | > 10 | > 10 | > 10 | > 10 | > 10 | > 10 | > 10 | > 10 | > 10 | > 10 | > 10 | 
Cc1cn(C2CC(N)C(C(=O)O)O2)c(=O)[nH]c1=O (configuration not stated) | > 100 | > 100 | > 100 | > 100 | > 100 | > 100 | > 100 | > 100 |  |  | > 100 | > 100 | > 100 | > 100 | > 100 | > 100
COc1ccc(/C(=N/NC(N)=O)C(c2ccc(OC)cc2)C2C(=O)Oc3ccccc32)cc1 (configuration not stated) | > 100 | > 100 | > 100 | > 100 | > 100 | > 100 | > 100 | > 100 | > 100 | > 100 | > 100 |  | > 100 | > 100 | > 100 | 
CC(=O)NNc1nc(C)c(C(/C=C/c2ccc(Cl)cc2)=N/NC(=O)C[N+](C)(C)C)s1 | > 100 | > 100 | > 100 | > 100 | > 100 | > 100 | > 100 |  | > 100 | > 100 | > 100 | > 100 |  | > 100 | > 100 | 
